Laboratory results published in patent US11072780B2, “Method of differentiating human pluripotent cells into cardiac fibroblasts” (Wisconsin Alumni Research Foundation, priority 2016, dated 2021).

How the values were obtained:
hPSCs [1] = experiment: Flow cytometry of stage-specific progenitors in GiWi protocol; type: cell-based, human; settings: after 24 hours of treatment
Method: Differentiation of hPSCs to cardiomyocytes using GiWi protocol: Human PSCs were dissociated with 1 ml/well Versene solution at 37° C. for 5 minutes, and seeded on Matrigel™ coated 6-well plates at the density of 1.5×10^6 cells/well in mTeSR1 medium supplemented with 10 μM ROCK inhibitor (Y-27632) (Tocris). Cells were cultured for 5-6 days in mTeSR1 medium until the cells reached 100% confluence when differentiation started (day 0). At day 0, the medium was changed to 2.5 ml RPMI+B27 without insulin (Invitrogen) and supplemented with 12 μM CHIR99021 (Tocris) and cells were treated in this medium for 24 hrs (day 1). At day 1, medium was changed to 3 ml RPMI+B27 without insulin and cells were cultured in this medium for 48 hrs (day 3). […]
Flow Cytometry: Cells were detached from cell culture plates by incubation with 0.25% trypsin-EDTA (Invitrogen) plus 2% chick serum (Sigma) for 5 minutes at 37° C. […] Cells were counted and 0.5-1 million cells were used as the sample size for labeling. […] Data were collected on a FACSCalibur™ flow cytometer (Beckton Dickinson) and analyzed using FlowJo™ software.
Biphasic modulation of the Wnt signaling pathway with small molecules is sufficient to direct the differentiation of monolayer cultured hPSCs to cardiomyocytes^21. […] We first determined the stage-specific mesodermal and cardiac progenitor populations generated by this small molecule (GiWi) protocol^22. […]

hPSCs [2] = experiment: Quantitative RT-PCR time course of GiFGF protocol; type: cell-based, human; settings: qRT-PCR, peaking at day 1
Method: Differentiation of hPSCs to cardiac fibroblasts: Human PSCs were dissociated with 1 ml/well Versene solution (Invitrogen) at 37° C. for 5 minutes, and seeded on Matrigel™ (GFR, BD Biosciences) coated 6-well plates at the density of 1.5×10^6 cells/well in mTeSR1 medium supplemented with 10 μM ROCK inhibitor (Y-27632) (Tocris). Cells were cultured for 5-6 days in mTeSR1 medium with medium change daily until the cells reached 100% confluence when differentiation started (day 0). At day 0, the medium was changed to 2.5 ml RPMI+B27 without insulin (Invitrogen) and supplemented with 12 μM CHIR99021 (Tocris) and cells were treated in this medium for 24 hrs (day 1). At day 1, medium was changed to 3 ml RPMI+B27 without insulin and cells were cultured in this medium for another day (day 2). At day 2, the medium was changed to 2.5 ml of the defined fibroblast culture medium (Table 1) supplemented with bFGF (WiCell). Methods using L-glutamine in place of GlutaMAX were also successful. […]
RT-PCR and quantitative RT-PCR: Cell samples were collected using 0.25% trypsin-EDTA (Invitrogen) to remove the cells from cell culture plates. […] Quantitative RT-PCR (Q-PCR) was performed using Taqman PCR Master Mix and Gene Expression Assays (Applied Biosystems) in triplicate for each sample and each gene. […]

[3] = system: hPSC-derived cardiac mesodermal progenitors; experiment: Cardiac fibroblast differentiation induced by bFGF at stage-specific progenitors, flow cytometry at 20 days; type: cell-based
Method: Differentiation of hPSCs to cardiac fibroblasts: Human PSCs were dissociated with 1 ml/well Versene solution (Invitrogen) at 37° C. for 5 minutes, and seeded on Matrigel™ (GFR, BD Biosciences) coated 6-well plates at the density of 1.5×10^6 cells/well in mTeSR1 medium supplemented with 10 μM ROCK inhibitor (Y-27632) (Tocris). Cells were cultured for 5-6 days in mTeSR1 medium with medium change daily until the cells reached 100% confluence when differentiation started (day 0). At day 0, the medium was changed to 2.5 ml RPMI+B27 without insulin (Invitrogen) and supplemented with 12 μM CHIR99021 (Tocris) and cells were treated in this medium for 24 hrs (day 1). At day 1, medium was changed to 3 ml RPMI+B27 without insulin and cells were cultured in this medium for another day (day 2). At day 2, the medium was changed to 2.5 ml of the defined fibroblast culture medium (Table 1) supplemented with bFGF (WiCell). Methods using L-glutamine in place of GlutaMAX were also successful. Cells were fed every other day and cultured until day 20 for flow cytometry analysis and subculture of cardiac fibroblasts.
Flow Cytometry: Cells were detached from cell culture plates by incubation with 0.25% trypsin-EDTA (Invitrogen) plus 2% chick serum (Sigma) for 5 minutes at 37° C. Cells were vortexed to disrupt the aggregates followed by neutralization by adding equal volume of EB20 medium (Zhang et al., Circ Res. 2009). Cells were counted and 0.5-1 million cells were used as the sample size for labeling. Cells were fixed in 1% paraformaldehyde in a 37° C. water bath for 10 minutes in the dark. For labeling intracellular markers, cells were permeabilized in ice-cold 90% methanol for 30 minutes on ice. Cells were washed once in FACS buffer (PBS without Ca/Mg2^+, 0.5% BSA, 0.1% NaN3), centrifuged and resuspended in about 50 μl FACS buffer with (for intracellular markers) or without 0.1% Triton X-100. For labeling surface markers, appropriate amounts of the conjugated antibodies were added according to the manufacturer's instruction to the cells in FACS buffer to make the final volume of 100 μl with FACS buffer, and incubated in the dark for 30 minutes at room temperature. Cells were washed once with 3 ml FACS buffer and resuspended in 300-500 μl FACS buffer for analysis. […] Data were collected on a FACSCalibur™ flow cytometer (Beckton Dickinson) and analyzed using FlowJo™ software.
Our goal was to bias the differentiation to generate cardiac fibroblasts rather than cardiomyocytes. […] Following 20 days of differentiation, cells were analyzed by flow cytometry using a specific fibroblast antibody (mouse anti-human fibroblast, clone TE-7) and an antibody to sarcomeric myosin (MF20) expressed in cardiomyocytes. […]

Molecule	Brachyury expression (hPSCs [1])	early mesodermal gene T expression (hPSCs [2])	bFGF concentration at which fibroblast marker positive cells peaked ([3]; added on day 2 of differentiation) [ng/mL]	fibroblast marker positive cells (clone TE-7) ([3]; bFGF 0-125 ng/ml in CFBM, 20 days of differentiation, flow cytometry)	cell death ([3]; higher concentration of bFGF added on day 3 or day 4, after day 6 of differentiation)	generation of MF20+ cardiomyocytes ([3]; medium change and bFGF added on day 2 or day 3)
Cc1c[nH]c(-c2cnc(NCCNc3ccc(C#N)cn3)nc2-c2ccc(Cl)cc2Cl)n1 [CHIR, CHIR99021]	expressed in almost all cells	transiently up-regulated	–	–	–	–
bFGF: fibroblast growth factor (WiCell) added to the defined fibroblast medium	–	–	75	concentration-dependent increase	significant cell death	effectively prevented
